Source: paper PMC10866072, “Design, synthesis, molecular modelling and biological evaluation of novel 6-amino-5-cyano-2-thiopyrimidine derivatives as potent anticancer agents against leukemia and apoptotic inducers” (Journal of Enzyme Inhibition and Medicinal Chemistry, 2024)

Tests used:
K-562 = format: cell-based; conditions: one dose 10^-5 M, 48 h
NCI/ADR-RES = format: cell-based; conditions: one dose 10^-5 M, 48 h
SK-MEL-28 = format: cell-based; conditions: one dose 10^-5 M, 48 h
MDA-MB-435 = format: cell-based; conditions: one dose 10^-5 M, 48 h
T-47D = format: cell-based; conditions: one dose 10^-5 M, 48 h
MOLT-4 = format: cell-based; conditions: one dose 10^-5 M, 48 h
U251 = format: cell-based; conditions: one dose 10^-5 M, 48 h
MALME-3M = format: cell-based; conditions: one dose 10^-5 M, 48 h
IGROV1 = format: cell-based; conditions: one dose 10^-5 M, 48 h
HL-60(TB) = format: cell-based; conditions: one dose 10^-5 M, 48 h
UO-31 = format: cell-based; conditions: one dose 10^-5 M, 48 h
SN12C = format: cell-based, human; conditions: one dose 10^-5 M, 48 h
LOX IMVI = format: cell-based; conditions: one dose 10^-5 M, 48 h
OVCAR-4 = format: cell-based; conditions: one dose 10^-5 M, 48 h
NCI-H23 = format: cell-based; conditions: one dose 10^-5 M, 48 h
NCI-H460 = format: cell-based; conditions: one dose 10^-5 M, 48 h
UACC-62 = format: cell-based; conditions: one dose 10^-5 M, 48 h
M14 = format: cell-based; conditions: one dose 10^-5 M, 48 h
MDA-MB-231/ATCC = format: cell-based; conditions: one dose 10^-5 M, 48 h
SK-OV-3 = format: cell-based; conditions: one dose 10^-5 M, 48 h
RXF 393 = format: cell-based; conditions: one dose 10^-5 M, 48 h
SF-295 = format: cell-based; conditions: one dose 10^-5 M, 48 h
UACC-257 = format: cell-based; conditions: one dose 10^-5 M, 48 h
HCC-2998 = format: cell-based; conditions: one dose 10^-5 M, 48 h
TK-10 = format: cell-based; conditions: one dose 10^-5 M, 48 h
NCI-H522 = format: cell-based; conditions: one dose 10^-5 M, 48 h
RPMI-8226 = format: cell-based; conditions: one dose 10^-5 M, 48 h
OVCAR-8 = format: cell-based; conditions: one dose 10^-5 M, 48 h
SK-MEL-5 = format: cell-based; conditions: one dose 10^-5 M, 48 h
SNB-19 = format: cell-based; conditions: one dose 10^-5 M, 48 h
786-0 = format: cell-based; conditions: one dose 10^-5 M, 48 h
EKVX = format: cell-based; conditions: one dose 10^-5 M, 48 h
NCI-H226 = format: cell-based; conditions: one dose 10^-5 M, 48 h
SF-539 = format: cell-based; conditions: one dose 10^-5 M, 48 h
CCRF-CEM = format: cell-based; conditions: one dose 10^-5 M, 48 h
SF-268 = format: cell-based; conditions: one dose 10^-5 M, 48 h
HCT-15 = format: cell-based; conditions: one dose 10^-5 M, 48 h
KM12 = format: cell-based; conditions: one dose 10^-5 M, 48 h
COLO 205 = format: cell-based; conditions: one dose 10^-5 M, 48 h
OVCAR-5 = format: cell-based; conditions: one dose 10^-5 M, 48 h
SK-MEL-2 = format: cell-based; conditions: one dose 10^-5 M, 48 h
[1] = test system: full NCI 60 cell lines panel; conditions: for activity on all 60 cancer cell lines tested (in words): one dose; for Mean % growth: one dose 10^-5 M, 48 h, mean over all cell lines
DU-145 = format: cell-based; conditions: one dose 10^-5 M, 48 h
SW-620 = format: cell-based; conditions: one dose 10^-5 M, 48 h
HOP-92 = format: cell-based; conditions: one dose 10^-5 M, 48 h
ACHN = format: cell-based; conditions: one dose 10^-5 M, 48 h
HS 578T = format: cell-based; conditions: one dose 10^-5 M, 48 h; HS 578T
HCT-116 = format: cell-based; conditions: one dose 10^-5 M, 48 h
MCF7 = format: cell-based; conditions: one dose 10^-5 M, 48 h
OVCAR-3 = format: cell-based; conditions: one dose 10^-5 M, 48 h
SR = format: cell-based; conditions: one dose 10^-5 M, 48 h
HT29 = format: cell-based; conditions: one dose 10^-5 M, 48 h
PC-3 = format: cell-based; conditions: one dose 10^-5 M, 48 h
BT-549 = format: cell-based; conditions: one dose 10^-5 M, 48 h
A549/ATCC = format: cell-based; conditions: one dose 10^-5 M, 48 h
HOP-62 = format: cell-based; conditions: one dose 10^-5 M, 48 h
A498 = format: cell-based; conditions: one dose 10^-5 M, 48 h
CAKI-1 = format: cell-based; conditions: one dose 10^-5 M, 48 h
MDA-MB-468 = format: cell-based; conditions: one dose 10^-5 M, 48 h

## 3-Amino-4–(2,4-dichlorophenyl)-1H-pyrazolo[3,4-d] pyrimidine-6-thiol [Compound 3c]
K-562
  % growth: 105.30%
NCI/ADR-RES
  % growth: 114.09%
SK-MEL-28
  % growth: 115.84%
MDA-MB-435
  % growth: 110.71%
T-47D
  % growth: 92.59%
MOLT-4
  % growth: 90.06%
U251
  % growth: 103.99%
MALME-3M
  % growth: 92.32%
IGROV1
  % growth: 105.59%
HL-60(TB)
  % growth: 89.08%
UO-31
  % growth: 85.75%
SN12C
  % growth: 105.03%
LOX IMVI
  % growth: 106.21%
OVCAR-4
  % growth: 105.05%
NCI-H23
  % growth: 103.34%
NCI-H460
  % growth: 115.81%
UACC-62
  % growth: 93.81%
M14
  % growth: 106.66%
MDA-MB-231/ATCC
  % growth: 94.87%
SK-OV-3
  % growth: 86.72%
RXF 393
  % growth: 114.73%
SF-295
  % growth: 94.52%
UACC-257
  % growth: 107.51%
HCC-2998
  % growth: 103.06%
TK-10
  % growth: 146.75%
NCI-H522
  % growth: 95.34%
RPMI-8226
  % growth: 108.63%
OVCAR-8
  % growth: 109.69%
SK-MEL-5
  % growth: 108.42%
SNB-19
  % growth: 93.39%
786-0
  % growth: 100.98%
EKVX
  % growth: 115.88%
NCI-H226
  % growth: 106.10%
SF-539
  % growth: 94.60%
CCRF-CEM
  % growth: 94.56%
SF-268
  % growth: 108.35%
HCT-15
  % growth: 111.27%
KM12
  % growth: 104.75%
COLO 205
  % growth: 120.01%
OVCAR-5
  % growth: 108.30%
SK-MEL-2
  % growth: 108.60%
[1]
  activity on all 60 cancer cell lines tested (in words): weak activity
  Mean % growth: 104.17%
DU-145
  % growth: 119.84%
SW-620
  % growth: 106.47%
HOP-92
  % growth: 76.20%
ACHN
  % growth: 106.88%
HS 578T
  % growth: 100.24%
HCT-116
  % growth: 112.94%
MCF7
  % growth: 95.64%
OVCAR-3
  % growth: 109.08%
SR
  % growth: 97.30%
HT29
  % growth: 110.65%
PC-3
  % growth: 96.81%
BT-549
  % growth: 100.27%
A549/ATCC
  % growth: 104.45%
HOP-62
  % growth: 92.49%
A498
  % growth: 125.09%
CAKI-1
  % growth: 96.86%
MDA-MB-468
  % growth: 110.26%

## 4-Amino-6–(2,4-dichlorophenyl)-2-mercaptopyrimidine-5-carboximidohydrazide [Compound 2c]
K-562
  % growth: 91.24%
NCI/ADR-RES
  % growth: 103.23%
SK-MEL-28
  % growth: 109.76%
MDA-MB-435
  % growth: 96.41%
T-47D
  % growth: 73.88%
MOLT-4
  % growth: 94.43%
U251
  % growth: 103.26%
MALME-3M
  % growth: 94.17%
IGROV1
  % growth: 104.68%
HL-60(TB)
  % growth: 57.91%
UO-31
  % growth: 71.44%
SN12C
  % growth: 91.26%
LOX IMVI
  % growth: 86.57%
OVCAR-4
  % growth: 82.22%
NCI-H23
  % growth: 95.68%
NCI-H460
  % growth: 89.85%
UACC-62
  % growth: 84.96%
M14
  % growth: 95.64%
MDA-MB-231/ATCC
  % growth: 77.09%
SK-OV-3
  % growth: 94.00%
RXF 393
  % growth: 94.62%
SF-295
  % growth: 93.63%
UACC-257
  % growth: 102.94%
HCC-2998
  % growth: 108.77%
TK-10
  % growth: 111.85%
NCI-H522
  % growth: 68.80%
RPMI-8226
  % growth: 87.93%
OVCAR-8
  % growth: 94.00%
SK-MEL-5
  % growth: 97.76%
SNB-19
  % growth: 86.22%
786-0
  % growth: 90.40%
EKVX
  % growth: 83.88%
NCI-H226
  % growth: 90.50%
SF-539
  % growth: 85.28%
CCRF-CEM
  % growth: 75.32%
SF-268
  % growth: 104.49%
HCT-15
  % growth: 92.01%
KM12
  % growth: 100.35%
COLO 205
  % growth: 100.56%
OVCAR-5
  % growth: 98.09%
SK-MEL-2
  % growth: 95.39%
[1]
  activity on all 60 cancer cell lines tested (in words): weak activity
  Mean % growth: 90.71%
DU-145
  % growth: 107.65%
SW-620
  % growth: 87.86%
HOP-92
  % growth: 71.67%
ACHN
  % growth: 76.09%
HS 578T
  % growth: 99.16%
HCT-116
  % growth: 85.00%
MCF7
  % growth: 79.62%
OVCAR-3
  % growth: 104.96%
SR
  % growth: 69.30%
HT29
  % growth: 89.84%
PC-3
  % growth: 77.58%
BT-549
  % growth: 81.84%
A549/ATCC
  % growth: 89.50%
HOP-62
  % growth: 95.11%
A498
  % growth: 105.32%
CAKI-1
  % growth: 83.79%
MDA-MB-468
  % growth: 90.16%
